Measured values as given in patent US6599933B2, “Tocotrienol derivative, process for producing the same and γ-CEHC delivering agent” (Kenko Corporation, priority 2000, dated 2003).

How the values were obtained:
[1] = racemic γ-CEHC administered to SD rat intravenously; cited from earlier work
[2] = Hydrolyzability test in rat plasma solution; format: in vitro ADME; details: 37° C., production of tocotrienol, Michaelis-Menten model
Experimental: (§1) d-α-tocotrienol N,N-dimethylaminoacetate hydrochloride (Example 5:hereinafter, d-α-T3DMA), d-α-tocotrienol N-methylaminoacetate hydrochloride (Example 2:hereinafter, d-α-T3MA), d-γ-tocotrienol N,N-dimethylaminoacetate hydrochloride (Example 6:hereinafter, d-γ-T3DMA), d-γ-tocotrienol N-methylaminoacetate hydrochloride (Example 4:hereinafter, d-γ-T3MA), or d-γ-tocotrienolaminoacetate hydrochloride (Example 3:hereinafter, d-γ-T3AA) were added to a solution of SD rat liver microsome and rat plasma in an isotonic phosphate buffer, and d-α-tocotrienol and d-γ-tocotrienol produced in the reaction solution at 37° C. with time were measured by high performance liquid chromatography (HPLC).
(§2) As Comparative Example, a hydrolysis test was performed on d-α-tocotrienolsuccinic acid ester (hereinafter, d-α-T3S) and d-γ-tocotrienolsuccinic acid ester (hereinafter, d-γ-T3S) similarly.
(§3) HPLC conditions: Column was CAPCELL PAK UG120, a mobile phase was methanol-acetonitrile (5:5 v/v), a rate was 0.7 ml/min, and detection was carried out by absorbance of 283 nm and fluorescent intensity (excitation 298 nm, fluorescent 325 nm).
(§4) Dynamic parameters of production of d-α-tocotrienol and d-γ-tocotrienol in a solution of rat liver microsome and rat plasma according to Micaelis-Menten model are shown in Tables 4 and 5.

[3] = Hydrolyzability test in rat liver microsome solution; format: in vitro ADME
Experimental: as §1, §2, §3, §4

[4] = Animal Test Example 1: kinetics in rat after intravenous administration (plasma, liver, heart, kidney); parameters: species or system SD rat; details: in vivo, 25 mg/kg
Experimental: 1) SD male rats (weighing 260-285 g) were used while a diet was changed to crystal sugar from 16 hours before drug administration. d-α-T3DMA (Example 5), d-γ-T3DMA (Example 6), d-α-tocotrienol (hereinafter, d-α-T3), or d-γ-tocotrienol (hereinafter, d-γ-T3) was administered into left femoral vein under slight anesthesia. A solution of d-α-T3DMA or d-γ-T3DMA to be administered was used by dissolving it in distilled water containing 10% propylene glycol, and filtering with membrane filter (0.22 μm). A solution of d-α-T3 and d-γ-T3 to be administered was used by dissolving it using a nonionic surfactant HCO-60. Administration amounts were set to be tocotrienol equivalent 25 mg/kg, respectively. 0.25, 0.5, 1, 2, 4, 8 and 24 hours after administration, blood was taken under ether anesthesia, and liver, heart and kidney were taken. Plasma was rapidly separated and taken. A 1.15% potassium chloride solution was added at a 3-fold amount of each organ weight was added thereto, which was homogenated. 0.7 ml of ethanol was added to 0.2 ml of each sample, the mixture was stirred for 2 minutes, centrifuged, and the supernatant was analyzed by the aforementioned HPLC.

[5] = Test Examples 2 and 3: S-γ-CEHC kinetics in plasma after intravenous administration to rat; format: in vivo, SD rat
Experimental: A SD male rat, 7 weeks old, was used. A solution of γ-T3DMA to be administered was prepared into a d-γ-tocotrienol equivalent 25 mg/ml aqueous solution. The solution was administered intravenously into left femoram vein under slight ether anesthesia, blood was taken from external jugular vein with an injector for tuberculin treated with heparin with time, and plasma was taken after centrifugation. Plasma was stored at −80° C. till HPLC measurement. A γ-CEHC level in plasma was measured by the HPLC method which can fractionally quantitate optical isomers S-γ-CEHC and R-γ-CEHC (Hattori A., Fukushima T., Imai K., Anal. Biochem., 281, 209-215 (2000)). […] R-γ-CEHC was not detected in plasma after administration and only S-γ-CEHC was detected therein. […] Here, a S-γ-CEHC level after administration of racemic γ-CEHC is a value at racemic γ-CEHC 1 mg/kg. […] S-γ-CEHC in plasma was rapidly elevated after administration of γ-T3DMA and reached Cmax 1 hour after administration. […] Mean Retention Time (MRT) of a γ-T3DMA administered group is 6.64 hr and is an about 7-fold value as compared with MRT 1.00 hr of a racemic γ-CEHC administered group. From the foregoing, it can be understood that γ-T3DMA can enhance the S-γ-CEHC level in the living body and, further, can maintain the S-γ-CEHC level continuously for longer period of time.
The pharmacokinetics parameter represents an average of four animals and standard deviation. A dose is γ-T3 equivalent 25 mg/kg. F(%) was obtained by the following equation: […]
a Obtained by the Following Equation [formula]
wherein AUCS-γ-CEHC,γ-T3DM^Plasma and AUCS-γ-CEHC,racemicγ-CEHC^Plasma means AUC of S-γ-CEHC after administration of γ-T3DMA and racemic γ-CEHC, respectively, and Dγ-T3DMA and Dracemic γ-CEHC means a dose of γ-T3DMA and racemic γ-CEHC, respectively.
b Obtained by the Following Equation [formula]
wherein AUCS-γ-CEHC,γ-TDMA^Plasma means AUC of S-γ-CEHC after administration of γ-TDMA, and Dγ-TDMA means a dose of γ-TDMA.
γ-CEHC kinetics in plasma was studied by administering an aqueous γ-TDMA solution into rat's vein according to the same test procedure as those of Test Example 2. The γ-CEHC in plasma was all S-γ-CEHC and R-γ-CEHC was not detected. […] A level in plasma was rapidly elevated after administration, reached Cmax after 1 hr, and a S-γ-CEHC level was elevated clearly. […] Thus, it was shown that a level of S-γ-CEHC in the living body is efficiently elevated. Mean Retention Time (MRT) of a γ-TDMA administered group was 8.19 hr and was about 8-fold value as compared to MRT 1.00 hr of a racemic γ-CEHC administered group.

[6] = Water-solubility test; details: 0.250 mmol in 5 ml distilled water, stirred at 20° C. for 24 hours, HPLC
[7] = liver microsome, 37° C., production of tocotrienol, Michaelis-Menten model
[8] = liver microsome, 37° C., production of tocotrienol, Michaelis-Menten model, read-out: Km

Row | SMILES | Km [2] [µM] | Vmax [2] [M/min] | Km [3] [µM] | Vmax/Km [3] [min⁻¹] | Vmax [3, 7] [M/min] | other results
1 | Cc1c(O)cc2c(c1C)O[C@@](C)(CCC(=O)O)CC2 [R-γ-CEHC] |  |  |  |  |  | biological half-life in plasma [1]: about 1 hour
2 | Cc1c(O)cc2c(c1C)OC(C)(CCC(=O)O)CC2 (stereo not shown) [S-γ-CEHC] |  |  |  |  |  | biological half-life in plasma [1]: ≤ 2 minutes
3 | CC(C)=CCC/C(C)=C/CC/C(C)=C/CC[C@]1(C)CCc2c(C)c(OC(=O)CN(C)C)c(C)c(C)c2O1.Cl [d-α-T3DMA, d-α-tocotrienol N,N-dimethylaminoacetate hydrochloride] | 793 | 9.187e-08 | 5970 | 0.02455 | 0.0001465 | bioavailability of d-α-T3 in liver [4]: 130%
4 | CNCC(=O)Oc1c(C)c(C)c2c(c1C)CC[C@@](C)(CC/C=C(\C)CC/C=C(\C)CCC=C(C)C)O2.Cl [d-α-T3MA, d-α-tocotrienol N-methylaminoacetate hydrochloride] | 1550 | 5.808e-07 | 109 | 0.01111 | 1.878e-06 | 
5 | CC(C)=CCC/C(C)=C/CC/C(C)=C/CC[C@]1(C)CCc2c(C)c(OC(=O)CCC(=O)O)c(C)c(C)c2O1 [d-α-T3S, d-α-tocotrienolsuccinic acid ester, reference compound] | 506 | 4.946e-08 | 30.3 | 0.001846 | 5.588e-08 | 
6 | CC(C)=CCC/C(C)=C/CC/C(C)=C/CC[C@]1(C)CCc2cc(OC(=O)CN)c(C)c(C)c2O1.Cl [d-γ-T3AA, d-γ-tocotrienol aminoacetate hydrochloride] | 5510 | 3.594e-05 |  |  | 7.716e-05 | Km [3, 8]: 1560 µM
7 | CC(C)=CCC/C(C)=C/CC/C(C)=C/CC[C@]1(C)CCc2cc(OC(=O)CN(C)C)c(C)c(C)c2O1.Cl [d-γ-T3DMA, d-γ-tocotrienol N,N-dimethylaminoacetate hydrochloride] | 786 | 7.592e-06 |  |  | 0.000323 | Km [3, 8]: 5580 µM; R-γ-CEHC in plasma after administration ([5]; intravenous, HPLC separating optical isomers): not detected; MRT as fold of MRT of racemic γ-CEHC administered group ([5]; intravenous, S-γ-CEHC in plasma): about 7 fold
8 | CNCC(=O)Oc1cc2c(c(C)c1C)O[C@](C)(CC/C=C(\C)CC/C=C(\C)CCC=C(C)C)CC2.Cl [d-γ-T3MA, d-γ-tocotrienol N-methylaminoacetate hydrochloride] | 12700 | 5.178e-05 |  |  | 0.0001204 | Km [3, 8]: 2100 µM
9 | CC(C)=CCC/C(C)=C/CC/C(C)=C/CC[C@]1(C)CCc2cc(OC(=O)CCC(=O)O)c(C)c(C)c2O1 [d-γ-T3S, d-γ-tocotrienolsuccinic acid ester, reference compound] | 1050 | 1.945e-06 | 22.1 | 0.03244 | 7.161e-07 | 
10 | CC(C)=CCC/C(C)=C/CC/C(C)=C/CC[C@]1(C)CCc2cc(O)c(C)c(C)c2O1 [d-γ-tocotrienol] |  |  |  |  |  | solubility in distilled water [6]: below detection limit of HPLC
11 | Cc1c(OC(=O)CN(C)C)cc2c(c1C)O[C@](C)(CCC[C@H](C)CCC[C@H](C)CCCC(C)C)CC2.Cl [γ-TDMA, d-γ-tocopheryl N,N-dimethylaminoacetate hydrochloride] |  |  |  |  |  | MRT as fold of MRT of racemic γ-CEHC administered group ([5]; in vivo, iv): about 8 fold; R-γ-CEHC in plasma after administration ([5]; in vivo, iv): not detected
